Measured values reported in BindingDB's records for doi:10.1016/s0960-894x(01)00323-7 (Kyoto University, 2001).

Tests used:
[1] = Effective concentration for 50% protection of HIV-induced cytopathogenicity in MT-4 cells on the MTT assay
[2] = Inhibitory concentration determined on an HIV infection model mediated by CXCR4
[3] = Effective concentration for 50% protection of HIV-induced cytopathogenicity in MT-4 cells on the MTT assay; remark: listed apart in the source

SMILES | EC50 [1] | IC50 [2] | EC50 [3]
NCCCC[C@@H]1NC(=O)[C@H](CCCNC(N)=O)NC(=O)[C@H](Cc2ccc(O)cc2)NC(=O)[C@@H](NC(=O)[C@@H](NC(=O)[C@H](CCCN=C(N)N)NC(=O)[C@@H](N)CCCN=C(N)N)c2ccc3ccccc3c2)CSSC[C@@H](C(=O)N[C@@H](CCCN=C(N)N)C(=O)O)NC(=O)[C@H](CCCNC(N)=O)NC(=O)[C@H](CCCN=C(N)N)NC(=O)[C@H](Cc2ccc(O)cc2)NC(=O)[C@@H]2CCCN2C(=O)[C@@H](CCCNC(N)=O)NC1=O [Derivative of T140 peptide] |  | 51 nM | 0.5 nM
NCCCC[C@@H]1NC(=O)[C@H](CCCNC(N)=O)NC(=O)[C@H](Cc2ccc(O)cc2)NC(=O)[C@@H](NC(=O)[C@@H](NC(=O)[C@H](CCCN=C(N)N)NC(=O)[C@@H](N)CCCN=C(N)N)c2ccc3ccccc3c2)CSSC[C@@H](C(=O)N[C@@H](CCCN=C(N)N)C(N)=O)NC(=O)[C@H](CCCNC(N)=O)NC(=O)[C@H](CCCNC(N)=O)NC(=O)[C@H](Cc2ccc(O)cc2)NC(=O)[C@@H]2CCCN2C(=O)[C@@H](CCCCN)NC1=O [Derivative of T140 peptide] | 6.8 nM |  | 
NCCCC[C@@H]1NC(=O)[C@H](CCCNC(N)=O)NC(=O)[C@H](Cc2ccc(O)cc2)NC(=O)[C@@H](NC(=O)[C@@H](NC(=O)[C@H](CCCN=C(N)N)NC(=O)[C@@H](N)CCCNC(N)=O)c2ccc3ccccc3c2)CSSC[C@@H](C(=O)N[C@@H](CCCN=C(N)N)C(=O)O)NC(=O)[C@H](CCCNC(N)=O)NC(=O)[C@H](CCCN=C(N)N)NC(=O)[C@H](Cc2ccc(O)cc2)NC(=O)[C@@H]2CCCN2C(=O)[C@@H](CCCCN)NC1=O [Derivative of T140 peptide] | 37 nM |  | 
NCCCC[C@@H]1NC(=O)[C@H](CCCNC(N)=O)NC(=O)[C@H](Cc2ccc(O)cc2)NC(=O)[C@@H](NC(=O)[C@H](Cc2ccc3ccccc3c2)NC(=O)[C@H](CCCN=C(N)N)NC(=O)[C@@H](N)CCCNC(N)=O)CSSC[C@@H](C(=O)N[C@@H](CCCN=C(N)N)C(N)=O)NC(=O)[C@H](CCCNC(N)=O)NC(=O)[C@H](CCCN=C(N)N)NC(=O)[C@H](Cc2ccc(O)cc2)NC(=O)[C@@H]2CCCN2C(=O)[C@@H](CCCCN)NC1=O [Derivative of T140 peptide] | 6.6 nM |  | 
NCCCC[C@@H]1NC(=O)[C@H](CCCNC(N)=O)NC(=O)[C@H](Cc2ccc(O)cc2)NC(=O)[C@@H](NC(=O)[C@@H](NC(=O)[C@H](CCCN=C(N)N)NC(=O)[C@@H](N)CCCN=C(N)N)c2ccc3ccccc3c2)CSSC[C@@H](C(=O)N[C@@H](CCCN=C(N)N)C(N)=O)NC(=O)[C@H](CCCNC(N)=O)NC(=O)[C@H](CCCN=C(N)N)NC(=O)[C@H](Cc2ccc(O)cc2)NC(=O)[C@@H]2CCCN2C(=O)[C@@H](CCCCN)NC1=O [Derivative of T140 peptide] |  | 12 nM | 0.6 nM
NCCCC[C@@H]1NC(=O)[C@H](CCCN=C(N)N)NC(=O)[C@H](Cc2ccc(O)cc2)NC(=O)[C@@H](NC(=O)[C@@H](NC(=O)[C@H](CCCN=C(N)N)NC(=O)[C@@H](N)CCCNC(N)=O)c2ccc3ccccc3c2)CSSC[C@@H](C(=O)N[C@@H](CCCN=C(N)N)C(N)=O)NC(=O)[C@H](CCCNC(N)=O)NC(=O)[C@H](CCCNC(N)=O)NC(=O)[C@H](Cc2ccc(O)cc2)NC(=O)[C@@H]2CCCN2C(=O)[C@@H](CCCCN)NC1=O [Derivative of T140 peptide] | 40 nM |  | 
NCCCC[C@@H]1NC(=O)[C@H](CCCN=C(N)N)NC(=O)[C@H](Cc2ccc(O)cc2)NC(=O)[C@@H](NC(=O)[C@@H](NC(=O)[C@H](CCCN=C(N)N)NC(=O)[C@@H](N)CCCN=C(N)N)c2ccc3ccccc3c2)CSSC[C@@H](C(=O)N[C@@H](CCCN=C(N)N)C(N)=O)NC(=O)[C@H](CCCNC(N)=O)NC(=O)[C@H](CCCN=C(N)N)NC(=O)[C@H](Cc2ccc(O)cc2)NC(=O)[C@@H]2CCCN2C(=O)[C@@H](CCCNC(N)=O)NC1=O [Derivative of T140 peptide] |  | 24 nM | 4.6 nM
NCCCC[C@@H]1NC(=O)[C@H](CCCN=C(N)N)NC(=O)[C@H](Cc2ccc(O)cc2)NC(=O)[C@@H](NC(=O)[C@@H](NC(=O)[C@H](CCCN=C(N)N)NC(=O)[C@@H](N)CCCN=C(N)N)c2ccc3ccccc3c2)CSSC[C@@H](C(=O)N[C@@H](CCCN=C(N)N)C(=O)O)NC(=O)[C@H](CCCNC(N)=O)NC(=O)[C@H](CCCN=C(N)N)NC(=O)[C@H](Cc2ccc(O)cc2)NC(=O)[C@@H]2CCCN2C(=O)[C@@H](CCCCN)NC1=O [Compound T140] | 3.3 nM | 10 nM | 
NCCCC[C@@H]1NC(=O)[C@H](CCCNC(N)=O)NC(=O)[C@H](Cc2ccc(O)cc2)NC(=O)[C@@H](NC(=O)[C@@H](NC(=O)[C@H](CCCN=C(N)N)NC(=O)[C@@H](N)CCCN=C(N)N)c2ccc3ccccc3c2)CSSC[C@@H](C(=O)N[C@@H](CCCN=C(N)N)C(=O)O)NC(=O)[C@H](CCCNC(N)=O)NC(=O)[C@H](CCCN=C(N)N)NC(=O)[C@H](Cc2ccc(O)cc2)NC(=O)[C@@H]2CCCN2C(=O)[C@@H](CCCCN)NC1=O [Derivative of T140 peptide] |  | 8 nM | 2.8 nM
NCCCC[C@@H]1NC(=O)[C@H](CCCN=C(N)N)NC(=O)[C@H](Cc2ccc(O)cc2)NC(=O)[C@@H](NC(=O)[C@@H](NC(=O)[C@H](CCCN=C(N)N)NC(=O)[C@@H](N)CCCN=C(N)N)c2ccc3ccccc3c2)CSSC[C@@H](C(=O)N[C@@H](CCCN=C(N)N)C(=O)O)NC(=O)[C@H](CCCNC(N)=O)NC(=O)[C@H](CCCNC(N)=O)NC(=O)[C@H](Cc2ccc(O)cc2)NC(=O)[C@@H]2CCCN2C(=O)[C@@H](CCCNC(N)=O)NC1=O [Derivative of T140 peptide] | 7.8 nM |  | 
NCCCC[C@@H]1NC(=O)[C@H](CCCN=C(N)N)NC(=O)[C@H](Cc2ccc(O)cc2)NC(=O)[C@@H](NC(=O)[C@@H](NC(=O)[C@H](CCCN=C(N)N)NC(=O)[C@@H](N)CCCNC(N)=O)c2ccc3ccccc3c2)CSSC[C@@H](C(=O)N[C@@H](CCCN=C(N)N)C(=O)O)NC(=O)[C@H](CCCNC(N)=O)NC(=O)[C@H](CCCN=C(N)N)NC(=O)[C@H](Cc2ccc(O)cc2)NC(=O)[C@@H]2CCCN2C(=O)[C@@H](CCCNC(N)=O)NC1=O [Derivative of T140 peptide] | 36 nM |  | 
NCCCC[C@@H]1NC(=O)[C@H](CCCNC(N)=O)NC(=O)[C@H](Cc2ccc(O)cc2)NC(=O)[C@@H](NC(=O)[C@@H](NC(=O)[C@H](CCCN=C(N)N)NC(=O)[C@@H](N)CCCN=C(N)N)c2ccc3ccccc3c2)CSSC[C@@H](C(=O)N[C@@H](CCCN=C(N)N)C(=O)O)NC(=O)[C@H](CCCNC(N)=O)NC(=O)[C@H](CCCNC(N)=O)NC(=O)[C@H](Cc2ccc(O)cc2)NC(=O)[C@@H]2CCCN2C(=O)[C@@H](CCCCN)NC1=O [Derivative of T140 peptide] | 8.9 nM |  | 

Other lines, results leading:

EC50 [1] | IC50 [2] | EC50 [3] | SMILES
88 nM |  |  | Nc1ccn([C@H]2CC[C@@H](CO)O2)c(=O)n1 [Dideoxycytidine]
 | 23 nM | 4 nM | NCCCC[C@@H]1NC(=O)[C@H](CCCN=C(N)N)NC(=O)[C@H](Cc2ccc(O)cc2)NC(=O)[C@@H](NC(=O)[C@@H](NC(=O)[C@H](CCCN=C(N)N)NC(=O)[C@@H](N)CCCN=C(N)N)c2ccc3ccccc3c2)CSSC[C@@H](C(=O)N[C@@H](CCCN=C(N)N)C(=O)O)NC(=O)[C@H](CCCNC(N)=O)NC(=O)[C@H](CCCN=C(N)N)NC(=O)[C@H](Cc2ccc(O)cc2)NC(=O)[C@@H]2CCCN2C(=O)[C@@H](CCCNC(N)=O)NC1=O [T140]
68 nM |  |  | NCCCC[C@@H]1NC(=O)[C@H](CCCN=C(N)N)NC(=O)[C@H](Cc2ccc(O)cc2)NC(=O)[C@@H](NC(=O)[C@@H](NC(=O)[C@H](CCCN=C(N)N)NC(=O)[C@@H](N)CCCNC(N)=O)c2ccc3ccccc3c2)CSSC[C@@H](C(=O)N[C@@H](CCCN=C(N)N)C(=O)O)NC(=O)[C@H](CCCNC(N)=O)NC(=O)[C@H](CCCNC(N)=O)NC(=O)[C@H](Cc2ccc(O)cc2)NC(=O)[C@@H]2CCCN2C(=O)[C@@H](CCCCN)NC1=O [Derivative of T140 peptide]
 | 19 nM | 0.4 nM | NCCCC[C@@H]1NC(=O)[C@H](CCCNC(N)=O)NC(=O)[C@H](Cc2ccc(O)cc2)NC(=O)[C@@H](NC(=O)[C@@H](NC(=O)[C@H](CCCN=C(N)N)NC(=O)[C@@H](N)CCCN=C(N)N)c2ccc3ccccc3c2)CSSC[C@@H](C(=O)N[C@@H](CCCN=C(N)N)C(N)=O)NC(=O)[C@H](CCCNC(N)=O)NC(=O)[C@H](CCCN=C(N)N)NC(=O)[C@H](Cc2ccc(O)cc2)NC(=O)[C@@H]2CCCN2C(=O)[C@@H](CCCNC(N)=O)NC1=O [Derivative of T140 peptide]
1.2 nM |  |  | NCCCC[C@@H]1NC(=O)[C@H](CCCN=C(N)N)NC(=O)[C@H](Cc2ccc(O)cc2)NC(=O)[C@@H](NC(=O)[C@@H](NC(=O)[C@H](CCCN=C(N)N)NC(=O)[C@@H](N)CCCNC(N)=O)c2ccc3ccccc3c2)CSSC[C@@H](C(=O)N[C@@H](CCCN=C(N)N)C(N)=O)NC(=O)[C@H](CCCNC(N)=O)NC(=O)[C@H](CCCN=C(N)N)NC(=O)[C@H](Cc2ccc(O)cc2)NC(=O)[C@@H]2CCCN2C(=O)[C@@H](CCCNC(N)=O)NC1=O [Derivative of T140 peptide]
2.7 nM |  |  | NCCCC[C@@H]1NC(=O)[C@H](CCCN=C(N)N)NC(=O)[C@H](Cc2ccc(O)cc2)NC(=O)[C@@H](NC(=O)[C@@H](NC(=O)[C@H](CCCN=C(N)N)NC(=O)[C@@H](N)CCCN=C(N)N)c2ccc3ccccc3c2)CSSC[C@@H](C(=O)N[C@@H](CCCN=C(N)N)C(N)=O)NC(=O)[C@H](CCCNC(N)=O)NC(=O)[C@H](CCCNC(N)=O)NC(=O)[C@H](Cc2ccc(O)cc2)NC(=O)[C@@H]2CCCN2C(=O)[C@@H](CCCNC(N)=O)NC1=O [Derivative of T140 peptide]
72 nM |  |  | NCCCC[C@@H]1NC(=O)[C@H](CCCN=C(N)N)NC(=O)[C@H](Cc2ccc(O)cc2)NC(=O)[C@@H](NC(=O)[C@@H](NC(=O)[C@H](CCCN=C(N)N)NC(=O)[C@@H](N)CCCN=C(N)N)c2ccc3ccccc3c2)CSSC[C@@H](C(=O)N[C@@H](CCCN=C(N)N)C(N)=O)NC(=O)[C@H](CCCNC(N)=O)NC(=O)[C@H](CCCN=C(N)N)NC(=O)[C@H](Cc2ccc(O)cc2)NC(=O)[C@@H]2CCCN2C(=O)[C@@H](CCCCN)NC1=O [Derivative of T140 peptide]
